Read-outs that look alike come from different tables or passages of the source.
Columns and labels:
[1] = tested on: Hsp90 in HEPG2 lysate; settings: HepG2 lysate
[2] = tested on: Hsp90 in 3T3 lysate; experiment: FP competition in whole-cell lysate; type: binding, mouse; settings: 3T3 lysate
Experimental: After vortexing, cell lysate was frozen at −80 °C for 2 h, followed by thawing on ice. The vortex-freeze-thaw step was repeated. […] Aliquots were thawed immediately prior to use.

[3] = molecular target: human Grp94 NBD (Homo sapiens, UniProt P14625); settings: 0.1 nM Cy3-GdA; for FP signal (raw) / FP signal as fraction of no-compound (0 uM) control: Experiments 1-3
[4] = molecular target: human Hsp90 NBD (Homo sapiens, UniProt P08238); settings: 0.1 nM Cy3-GdA, Human NBD-Hsp90 (10 nM); for FP signal (raw) / FP signal as fraction of no-compound (0 uM) control: Experiments 1-3
[5] = molecular target: T1, Hsp90 in C. albicans (SC5314) lysate (Candida albicans, UniProt P46598); experiment: biochemical; type: binding; settings: SC5314 lysate
T1 construct: endogenous in cells; host or cells: C. albicans SC5314 whole-cell lysate

[6] = molecular target: T2, C. albicans Hsp90 NBD (Candida albicans, UniProt P46598); experiment: biochemical; type: binding; settings: 0.1 nM Cy3-GdA, C. albicans NBD-Hsp90 (10 nM); for FP signal (raw) / FP signal as fraction of no-compound (0 uM) control: Experiments 1-3
T2 construct: C. albicans Hsp90 (E7-K218); made in house; host or cells: E. coli Rosetta2

[7] = Experiments 1-3, one value per experiment

T1 sequence (P46598 whole entry): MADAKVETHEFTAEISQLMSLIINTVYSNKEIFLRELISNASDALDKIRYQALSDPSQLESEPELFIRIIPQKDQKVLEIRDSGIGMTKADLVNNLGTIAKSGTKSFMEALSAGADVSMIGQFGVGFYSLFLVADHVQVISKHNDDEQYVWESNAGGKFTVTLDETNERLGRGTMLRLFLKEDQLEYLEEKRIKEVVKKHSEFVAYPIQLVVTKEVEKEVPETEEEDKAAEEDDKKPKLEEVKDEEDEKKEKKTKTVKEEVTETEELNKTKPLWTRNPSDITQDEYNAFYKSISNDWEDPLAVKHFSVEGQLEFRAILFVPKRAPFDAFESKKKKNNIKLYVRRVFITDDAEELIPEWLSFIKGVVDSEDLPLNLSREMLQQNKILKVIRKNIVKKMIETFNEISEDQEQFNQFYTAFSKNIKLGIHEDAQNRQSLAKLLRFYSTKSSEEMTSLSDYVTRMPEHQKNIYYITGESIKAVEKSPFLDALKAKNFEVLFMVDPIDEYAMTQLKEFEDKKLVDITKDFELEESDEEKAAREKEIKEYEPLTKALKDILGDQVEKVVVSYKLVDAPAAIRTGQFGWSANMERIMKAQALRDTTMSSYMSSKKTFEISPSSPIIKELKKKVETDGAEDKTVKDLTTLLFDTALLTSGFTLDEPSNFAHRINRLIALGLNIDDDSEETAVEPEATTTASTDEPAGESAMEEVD
human Grp94 NBD, sequence (P14625 63-337): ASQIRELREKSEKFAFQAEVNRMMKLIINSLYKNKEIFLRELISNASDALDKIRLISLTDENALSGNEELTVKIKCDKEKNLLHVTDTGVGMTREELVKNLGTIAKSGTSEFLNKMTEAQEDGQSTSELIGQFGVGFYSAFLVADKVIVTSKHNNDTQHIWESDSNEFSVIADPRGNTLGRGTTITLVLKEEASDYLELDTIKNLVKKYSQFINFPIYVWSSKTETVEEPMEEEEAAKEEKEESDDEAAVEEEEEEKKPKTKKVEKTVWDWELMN
human Hsp90 NBD, sequence (P08238 1-223): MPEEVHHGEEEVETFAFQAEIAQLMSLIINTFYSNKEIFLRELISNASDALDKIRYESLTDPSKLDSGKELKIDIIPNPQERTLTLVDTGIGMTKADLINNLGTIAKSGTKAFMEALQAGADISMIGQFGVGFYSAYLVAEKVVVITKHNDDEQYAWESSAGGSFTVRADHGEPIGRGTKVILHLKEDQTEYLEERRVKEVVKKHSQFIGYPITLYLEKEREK
T2 sequence (P46598 7-218): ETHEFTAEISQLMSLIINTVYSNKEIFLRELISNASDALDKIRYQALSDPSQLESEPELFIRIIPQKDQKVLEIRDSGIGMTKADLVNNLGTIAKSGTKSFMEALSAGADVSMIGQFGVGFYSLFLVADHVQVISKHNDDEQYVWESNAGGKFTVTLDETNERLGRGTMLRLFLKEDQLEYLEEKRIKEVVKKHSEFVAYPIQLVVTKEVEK

## COc1ccc(CON=C2C=CC=CC3OC3CC(C)OC(=O)c3c(O)cc(O)cc3C2)cc1 (mixture of isomers) [CMLD075]
[1]; 0.01 uM
  FP signal (raw): 200
  FP signal, fraction of control: 0.9132
[1]; 0.02 uM
  FP signal (raw): 199
  FP signal, fraction of control: 0.9087
[1]; 0.078 uM
  FP signal (raw): 186
  FP signal, fraction of control: 0.8493
[1]; 0.313 uM
  FP signal (raw): 164
  FP signal, fraction of control: 0.7489
[1]; 0.625 uM
  FP signal (raw): 146
  FP signal, fraction of control: 0.6667
[1]; 2.5 uM
  FP signal (raw): 88
  FP signal, fraction of control: 0.4018
[1]; 5 uM
  FP signal (raw): 53
  FP signal, fraction of control: 0.242
[1]; 10 uM
  FP signal (raw): 32
  FP signal, fraction of control: 0.1461
[1]; fit against log conc uM
  EC50: 1.8 µM
[2]; 0.01 uM
  FP signal (raw): 243
  FP signal, fraction of control: 0.9681
[2]; 0.02 uM
  FP signal (raw): 243
  FP signal, fraction of control: 0.9681
[2]; 0.078 uM
  FP signal (raw): 240
  FP signal, fraction of control: 0.9562
[2]; 0.313 uM
  FP signal (raw): 223
  FP signal, fraction of control: 0.8884
[2]; 0.625 uM
  FP signal (raw): 206
  FP signal, fraction of control: 0.8207
[2]; 2.5 uM
  FP signal (raw): 144
  FP signal, fraction of control: 0.5737
[2]; 5 uM
  FP signal (raw): 102
  FP signal, fraction of control: 0.4064
[2]; 10 uM
  FP signal (raw): 52
  FP signal, fraction of control: 0.2072
[2]; fit against log conc uM
  EC50: 3.42 µM
[3]; [7]
  EC50: 261 nM
[3]; Cmpd 0.002 uM
  FP signal (raw): 93
  FP signal as fraction of no-compound (0 uM) control: 0.9208
[3]; Cmpd 0.004 uM
  FP signal (raw): 89
  FP signal as fraction of no-compound (0 uM) control: 0.8812
[3]; Cmpd 0.008 uM
  FP signal (raw): 88
  FP signal as fraction of no-compound (0 uM) control: 0.8713
[3]; Cmpd 0.016 uM
  FP signal (raw): 85
  FP signal as fraction of no-compound (0 uM) control: 0.8416
[3]; Cmpd 0.063 uM
  FP signal (raw): 73
  FP signal as fraction of no-compound (0 uM) control: 0.7228
[3]; Cmpd 0.25 uM
  FP signal (raw): 51
  FP signal as fraction of no-compound (0 uM) control: 0.505
[3]; Cmpd 0.5 uM
  FP signal (raw): 33
  FP signal as fraction of no-compound (0 uM) control: 0.3267
[3]; Cmpd 1 uM
  FP signal (raw): 15
  FP signal as fraction of no-compound (0 uM) control: 0.1485
[3]; Cmpd 2 uM
  FP signal (raw): 11
  FP signal as fraction of no-compound (0 uM) control: 0.1089
[4]; [7]
  EC50: 1250 nM
[4]; Cmpd 0.002 uM
  FP signal (raw): 100
  FP signal as fraction of no-compound (0 uM) control: 0.9615
[4]; Cmpd 0.004 uM
  FP signal (raw): 101
  FP signal as fraction of no-compound (0 uM) control: 0.9712
[4]; Cmpd 0.008 uM
  FP signal (raw): 101
  FP signal as fraction of no-compound (0 uM) control: 0.9712
[4]; Cmpd 0.016 uM
  FP signal (raw): 99
  FP signal as fraction of no-compound (0 uM) control: 0.9519
[4]; Cmpd 0.063 uM
  FP signal (raw): 96
  FP signal as fraction of no-compound (0 uM) control: 0.9231
[4]; Cmpd 0.25 uM
  FP signal (raw): 85
  FP signal as fraction of no-compound (0 uM) control: 0.8173
[4]; Cmpd 0.5 uM
  FP signal (raw): 85
  FP signal as fraction of no-compound (0 uM) control: 0.8173
[4]; Cmpd 1 uM
  FP signal (raw): 59
  FP signal as fraction of no-compound (0 uM) control: 0.5673
[4]; Cmpd 2 uM
  FP signal (raw): 28
  FP signal as fraction of no-compound (0 uM) control: 0.2692
[5]; 0.002 uM
  FP signal (raw): 169
  FP signal, fraction of control: 0.8989
[5]; 0.004 uM
  FP signal (raw): 160
  FP signal, fraction of control: 0.8511
[5]; 0.008 uM
  FP signal (raw): 155
  FP signal, fraction of control: 0.8245
[5]; 0.01 uM
  FP signal (raw): 60
  FP signal, fraction of control: 0.3226
[5]; 0.016 uM
  FP signal (raw): 142
  FP signal, fraction of control: 0.7553
[5]; 0.02 uM
  FP signal (raw): 50
  FP signal, fraction of control: 0.2688
[5]; 0.063 uM
  FP signal (raw): 103
  FP signal, fraction of control: 0.5479
[5]; 0.078 uM
  FP signal (raw): 24
  FP signal, fraction of control: 0.129
[5]; 0.25 uM
  FP signal (raw): 60
  FP signal, fraction of control: 0.3191
[5]; 0.313 uM
  FP signal (raw): 14
  FP signal, fraction of control: 0.07527
[5]; 0.5 uM
  FP signal (raw): 38
  FP signal, fraction of control: 0.2021
[5]; 0.625 uM
  FP signal (raw): 7
  FP signal, fraction of control: 0.03763
[5]; 1 uM
  FP signal (raw): 6
  FP signal, fraction of control: 0.03191
[5]; 2 uM
  FP signal (raw): 0
  FP signal, fraction of control: 0
[5]; 2.5 uM
  FP signal (raw): 3
  FP signal, fraction of control: 0.01613
[5]; 5 uM
  FP signal (raw): 0
  FP signal, fraction of control: 0
[5]; 10 uM
  FP signal (raw): -4
  FP signal, fraction of control: -0.02151
[5]; fit against log conc uM, read-out: EC50
  EC50: 0.102 µM
[6]; [7]
  EC50: 47.8 nM
[6]; Cmpd 0.002 uM
  FP signal (raw): 81
  FP signal as fraction of no-compound (0 uM) control: 0.8526
[6]; Cmpd 0.004 uM
  FP signal (raw): 80
  FP signal as fraction of no-compound (0 uM) control: 0.8421
[6]; Cmpd 0.008 uM
  FP signal (raw): 78
  FP signal as fraction of no-compound (0 uM) control: 0.8211
[6]; Cmpd 0.016 uM
  FP signal (raw): 72
  FP signal as fraction of no-compound (0 uM) control: 0.7579
[6]; Cmpd 0.063 uM
  FP signal (raw): 36
  FP signal as fraction of no-compound (0 uM) control: 0.3789
[6]; Cmpd 0.25 uM
  FP signal (raw): 16
  FP signal as fraction of no-compound (0 uM) control: 0.1684
[6]; Cmpd 0.5 uM
  FP signal (raw): 10
  FP signal as fraction of no-compound (0 uM) control: 0.1053
[6]; Cmpd 1 uM
  FP signal (raw): 7
  FP signal as fraction of no-compound (0 uM) control: 0.07368
[6]; Cmpd 2 uM
  FP signal (raw): 8
  FP signal as fraction of no-compound (0 uM) control: 0.08421

Reference: PMC6345968, “Structural basis for species-selective targeting of Hsp90 in a pathogenic fungus” (Nature Communications, 2019)
